The structures appear in SMILES notation.

A short description of data set [1]: End of study tumor and plasma concentrations (LC/MS/MS). Format: in vivo. Conditions: mice, trough (6–8 h).
The next data set deals with DLD1 PgP_KD1. The experiment in a line: Proliferation after shRNA knockdown of P-gp, DLD1 PgP_KD1. Format: cell-based. The conditions noted are these: Homo sapiens, DLD-1; DLD1 PgP_KD1:50, P-gp shRNA knockdown. As for the experimental part:
(§1) Cytotoxic/proliferation effects were determined using the sulforhodamine B (SRB) assay (Skehan et al., [1990]) or by resazurin. Briefly, cells in logarithmic growth phase were transferred to 96 well flat bottom plates with lids. One-hundred microliter cell suspensions containing 1500–5000 viable cells were plated into each well and incubated overnight prior to exposure with increasing concentrations of PF-309 for 3–5 days, dependent upon cell type. Media was removed and cells were fixed with cold 10% trichloroacetic acid for 30 min at 4°C. Cells were then washed with water and stained with 0.4% SRB (Fisher Sci., Pittsburgh, PA, USA) for 30 min at room temperature, washed again with 1% acetic acid, followed by stain solubilization with 10 mM tris at room temperature. The plate was then read on a plate reader (Biotek Synergy 2, Winooski, VT, USA) set at an absorbance wavelength of 565 nm. Cell proliferation curves were derived from the raw absorbance (OD) data.
(§2) The pGIPZ Pgp-specific shRNA expression cassettes, along with control shRNA plasmids including the original pGIPZ vector were purchased from Open Biosystems (Birmingham, AL, USA). […] Successful knockdown of specific genes and gene products was confirmed by semi-quantitative RT-PCR and immunoblotting with specific antibodies. […]

In a further data set the test system is LS1034. Description: Cell proliferation assay, LS1034. It is filed as cell-based. The conditions noted are these: Homo sapiens, LS-1034; LS1034, PF-309 alone, 72 h; 1 uM was the maximum concentration used. Here is the method:
as §1
(§3) Since PF-309 appeared to be a strong P-gp and BCRP substrates, we sought to evaluate if the transporters influenced sensitivity in vitro. We evaluated the sensitivity of CRC cell lines to PF-309 treatment in a panel of 27 lines. Cells were exposed to PF-309 at a range of concentrations for 72 h and cell content measured by SRB assay (see Pitts et al., [2013]). […]

The next data set has as its system NCIH508. Description: Cell proliferation assay, NCIH508. Format: cell-based. The conditions noted are these: Homo sapiens, NCI-H508; NCIH508, 72 h, SRB assay. As for the experimental part: as §1, §3
Data set [2] deals with Colo201 cell line xenograft. Description: CRC cell line xenograft efficacy, Colo201. It is filed as in vivo, mice. Conditions: 25 mg/kg orally twice daily, 14–28 days, end of study tumor volumes. Here is the method: (§4) For cell line xenografts, CRC cells were harvested in exponential phase growth and resuspended in a 1:1 mixture of serum-free RPMI 1640 and Matrigel (BD Biosciences). Five to ten million cells per mouse were injected subcutaneously into the flank using a 23-gauge needle. Mice were monitored daily for signs of toxicity and were weighed twice weekly. Tumor size was evaluated twice per week by caliper measurements using the following formula: tumor volume = length × width^2 × 0.52. When tumors reached 200–300 mm^3 mice were randomized into two groups with at least 10 tumors per group. Mice were then treated for 14–28 days (until control tumor volume reach ∼1500 mm^3) with either vehicle control (0.5% methylcellulose), or PF-3758309 (25 mg/kg) twice daily by oral gavage.
(§5) Human tumor xenograft models were used to evaluate the efficacy of PF-309 in vivo. Eleven different CRC cell line tumor xenografts were treated with 25 mg/kg PF-309 twice daily by oral gavage for 14–28 days (until control tumor volumes reached ∼1500 mm^3). Tumor volumes were measured throughout the study and the % growth inhibition was calculated from the average end of study tumor volumes by:
(§6) % Growth Inhibition= (average control volume−average treated volume)/average control volume×100%

Another data set deals with HCT116. Description: Cell proliferation assay, HCT116. The conditions noted are these: Homo sapiens, HCT-116; HCT116, 72 h, SRB assay. It is filed as cell-based. Here is the method: as §1, §3
Data set [3] concerns HCT15 cell line xenograft. Description: CRC cell line xenograft efficacy, HCT15. Format: in vivo, mice. The conditions noted are these: 25 mg/kg orally twice daily, 14–28 days, end of study tumor volumes. Here is the method: as §4, §5, §6
For another data set, the target named is T1, P-gp (Homo sapiens, UniProt P08183).
T1 construct: expressed in transfected cells; host or cells: MDR1-MDCK cells (canine kidney MDCK)
T1 sequence (P08183 whole entry): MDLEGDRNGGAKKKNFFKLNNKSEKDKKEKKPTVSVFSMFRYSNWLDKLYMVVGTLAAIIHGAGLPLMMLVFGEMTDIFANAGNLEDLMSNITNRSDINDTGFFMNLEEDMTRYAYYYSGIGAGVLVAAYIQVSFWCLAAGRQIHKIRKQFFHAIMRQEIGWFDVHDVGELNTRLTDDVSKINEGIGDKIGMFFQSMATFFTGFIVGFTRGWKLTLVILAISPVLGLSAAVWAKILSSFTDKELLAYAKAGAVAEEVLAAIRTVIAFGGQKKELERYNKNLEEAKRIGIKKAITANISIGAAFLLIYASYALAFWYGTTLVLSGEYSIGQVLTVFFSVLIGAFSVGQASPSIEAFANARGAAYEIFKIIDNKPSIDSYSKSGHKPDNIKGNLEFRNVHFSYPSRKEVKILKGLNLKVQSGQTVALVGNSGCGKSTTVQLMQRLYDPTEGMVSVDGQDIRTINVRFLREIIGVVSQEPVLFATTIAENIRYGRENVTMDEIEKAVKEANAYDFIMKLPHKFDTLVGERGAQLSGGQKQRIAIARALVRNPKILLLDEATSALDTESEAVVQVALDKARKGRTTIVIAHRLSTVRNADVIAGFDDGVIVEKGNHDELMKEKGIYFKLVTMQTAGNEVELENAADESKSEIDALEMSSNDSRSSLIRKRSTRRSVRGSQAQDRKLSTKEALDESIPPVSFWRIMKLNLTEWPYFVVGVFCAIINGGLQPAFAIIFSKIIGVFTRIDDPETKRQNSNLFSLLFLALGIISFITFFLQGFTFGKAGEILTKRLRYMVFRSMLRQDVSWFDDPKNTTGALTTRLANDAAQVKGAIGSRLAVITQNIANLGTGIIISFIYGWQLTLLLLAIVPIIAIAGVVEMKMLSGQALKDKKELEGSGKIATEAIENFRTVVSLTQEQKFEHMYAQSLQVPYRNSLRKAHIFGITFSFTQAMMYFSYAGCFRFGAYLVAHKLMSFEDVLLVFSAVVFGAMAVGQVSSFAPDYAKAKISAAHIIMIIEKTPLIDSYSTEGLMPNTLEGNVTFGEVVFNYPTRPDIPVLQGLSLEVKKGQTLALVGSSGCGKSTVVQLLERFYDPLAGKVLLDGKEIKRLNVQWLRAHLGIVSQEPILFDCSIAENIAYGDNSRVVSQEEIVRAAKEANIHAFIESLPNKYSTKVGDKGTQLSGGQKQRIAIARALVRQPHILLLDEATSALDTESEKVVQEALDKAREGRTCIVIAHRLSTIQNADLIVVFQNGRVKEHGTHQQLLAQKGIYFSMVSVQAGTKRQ
Description: MDR1-MDCK transwell assay (P-gp efflux). Format: in vitro ADME. Conditions: dog, ratio of B → A flux to A → B flux, >2 = substrate. As for the experimental part: Permeability and transporter substrate assays were performed as previously published (Feng et al., [2008]; Callegari et al., [2011]; Di et al., [2011]). Permeability assays were conducted in MDCKII-LE cells, which were generated by isolation of a subpopulation of cells with low expression of endogenous P-gp (Feng et al., [2008]; Callegari et al., [2011]; Di et al., [2011]). The use of MDCKII-LE cells are used to measure the passive permeability of compounds in place of MDCK wild-type or Caco-2 cells since both MDCK wild-type and Caco-2 cells are known to have some level of endogenous transporter expression which can affect the permeability measurement. P-gp efflux was determined in MDR1-MDCK cells and BCRP efflux was measured in BCRP-MDCKII-LE cells.
MDR1-MDCK and BCRP-MDCKII-LE transwell assays measure the effect of P-gp and BCRP, respectively, on transcellular flux. The efflux ratio, ratio of the B → A flux to the A → B flux, of PF-309 was measured to be 34.9 ± 7.9 in the MDR1-MDCK assay, indicating it is a strong substrate for P-gp. PF-309 was also determined to be substrate for BCRP as the efflux ratio was measured to be 7.6 ± 1.1. As a reference, compounds with efflux ratios >2 are considered to be substrates (Callegari et al., [2011]).

In another data set the test system is DLD1 Scr. The experiment in a line: Proliferation, control shRNA, DLD1 Scr. Format: cell-based. The conditions noted are these: Homo sapiens, DLD-1; DLD1 Scr:50, control shRNA. Here is the method: as §1, §2
In the next data set the test system is SW948. Description: Cell proliferation assay, SW948. It is filed as cell-based. Conditions: Homo sapiens; SW948, 72 h, SRB assay. As for the experimental part:
as §1, §3

The subject of another data set is SW837. Description: Cell proliferation assay, SW837. Format: cell-based. The conditions noted are these: Homo sapiens; SW837, 72 h, SRB assay. Here is the method:
as §1, §3

Turning to `Cc1nc(Nc2n[nH]c3c2CN(C(=O)N[C@H](CN(C)C)c2ccccc2)C3(C)C)c2sccc2n1` [PF-309], in [1], the “total plasma concentrations at the trough” value was in the range of 1 to 10 nM. The concentration for half-maximal inhibition (IC50) was 26 nM in the data set with DLD1 PgP_KD1; over 1000 nM in the data set with LS1034; over 1000 nM in the data set on NCIH508; 4.7 ± 0.9 nM with HCT116; 103 nM with DLD1 Scr; over 1000 nM in the data set with SW948. Further, the concentration for half-maximal inhibition (IC50) in the data set with SW837 was over 1000 nM. The “% Growth inhibition” value in data set [2] is 45%; in [3] it was 18%. For the same compound, at P-gp, the efflux ratio turned out to be 34.9 ± 7.9.
